Data as given in patent US9980943B2, “Methods of treating muscular dystrophy” (BOARD OF REGENTS OF THE NEVADA SYSTEM OF HIGHER EDUCATION, …, priority 2013, dated 2018).
Read-outs that look alike come from different tables or passages of the source.

Experiments:
Assay type in all cases: cell-based, mouse
[1] = system: α7 integrin (LacZ reporter in α7βgal+/− myoblasts); assay: Myoblast α7+/LacZ integrin FDG assay (Burkin assay in myoblasts, 96-well); settings: α7+/LacZ myoblasts, 96-well; for fold induction at 0.5 µM / fold induction at 1 µM / fold induction at 5 µM / fold induction at 10 µM / fold induction at 20 µM / fold induction at 40 µM: Mus musculus, Myoblast, 48 h
[2] = system: β-galactosidase in CMV-LacZ C2C12 myotubes; assay: CMV-LacZ secondary screen in C2C12 myotubes (β-Gal stabilizing assay); settings: for CMV-LACZ in Myotubes, signal relative to DMSO / fold induction at 5 µM / fold induction at 10 µM / fold induction at 20 µM / fold induction at 40 µM: C2C12 CMV-LacZ myotubes, fold relative to DMSO; for fold induction at 5 µM / fold induction at 10 µM / fold induction at 20 µM / fold induction at 40 µM: Mus musculus; for fold induction at 5 µM: C2C12, read-out: CMV-LACZ in Myotubes, signal relative to DMSO, 5 uM; for fold induction at 10 µM: C2C12, read-out: CMV-LACZ in Myotubes, signal relative to DMSO, 10 uM; for fold induction at 20 µM: C2C12, read-out: CMV-LACZ in Myotubes, signal relative to DMSO, 20 uM; for fold induction at 40 µM: C2C12, read-out: CMV-LACZ in Myotubes, signal relative to DMSO, 40 uM; for CMV-LACZ in Myotubes (β-galactosidase activity relative to DMSO): CMV-LacZ C2C12 myotubes, 96-well format
Source text: In order to determine compounds that acted to stabilize β-gal in myogenic cells, a CMV-LacZ C2C12 cell line was used in a secondary screen. The EGFP gene from the pEGFP (Clontech) vector was replaced by LACZ PCR product with digests of the vector/PCR product performed using EcoRI (NEB) and NotI (NEB) and ligated using T4 DNA Ligase (NEB) following standard procedures to produce the CMV-LACZ vector. The LACZ gene was generated by PCR from the pBK-RSV (Stratagene) vector using primers LACZ EcoRI F- and LACZ NotI R-. The CMV-LACZ vector was then digested with AfIII (NEB) to linearize the construct, which was then transfected in C2C12 myoblasts using Lipofectamine 2000 (Invitrogen) following the manufacturer's instructions. […] Clonal lines were selected and screened for βgal levels using the myoblast FDG assay.
The assays were used the original 96-well format and new dose-response curves for myoblasts (N=3-6 replicates for each data point), myotubes (N=3-6 replicates for data point), and CMV-LacZ secondary assay (N=2 replicates for each data point) using concentrations of 0.5 μM, 1 μM, 5 μM, 10 μM, 20 μM, and 40 μM (Tables 9-16).

[3] = system: α7 integrin (LacZ reporter in α7+/LacZ myotubes); assay: Myotube α7 integrin FDG assay (Burkin assay in myotubes, 96-well); settings: myotubes; for fold induction at 0.5 µM / fold induction at 1 µM / fold induction at 5 µM / fold induction at 10 µM / fold induction at 20 µM / fold induction at 40 µM: Mus musculus, Myotube

## CNC(=O)/C(=C\c1cccc(Oc2ccccc2)c1)NC(=O)c1ccccc1 [MLS000389677-01]
[1]; 0.5 uM
  Burkin Assay in Myoblasts, signal relative to DMSO: 0.5325
[1]; 1 uM
  Burkin Assay in Myoblasts, signal relative to DMSO: 0.8831
[1]; 5 uM
  Burkin Assay in Myoblasts, signal relative to DMSO: 0.8426
[1]; 10 uM
  Burkin Assay in Myoblasts, signal relative to DMSO: 0.7976
[1]; 20 uM
  Burkin Assay in Myoblasts, signal relative to DMSO: 0.6619
[1]; 40 uM
  Burkin Assay in Myoblasts, signal relative to DMSO: 0.6089
[2]; 5 uM
  CMV-LACZ in Myotubes, signal relative to DMSO: 0.8142
[2]; 10 uM
  CMV-LACZ in Myotubes, signal relative to DMSO: 0.7418
[2]; 20 uM
  CMV-LACZ in Myotubes, signal relative to DMSO: 1.019
[2]; 40 uM
  CMV-LACZ in Myotubes, signal relative to DMSO: 0.761
[3]; 0.5 uM
  Burkin Assay in Myotubes, α7 integrin LacZ reporter signal relative to DMSO: 1.005
[3]; 1 uM
  Burkin Assay in Myotubes, α7 integrin LacZ reporter signal relative to DMSO: 0.9156
[3]; 5 uM
  Burkin Assay in Myotubes, α7 integrin LacZ reporter signal relative to DMSO: 1.109
[3]; 10 uM
  Burkin Assay in Myotubes, α7 integrin LacZ reporter signal relative to DMSO: 0.9956
[3]; 20 uM
  Burkin Assay in Myotubes, α7 integrin LacZ reporter signal relative to DMSO: 0.6421
[3]; 40 uM
  Burkin Assay in Myotubes, α7 integrin LacZ reporter signal relative to DMSO: 0.953

## NS(=O)(=O)c1ccc(NC(=O)c2ccc(CNS(=O)(=O)c3cc(C(F)(F)F)ccc3Cl)cc2)cc1 [MLS000393110-01]
[1]; 0.5 uM
  Burkin Assay in Myoblasts, signal relative to DMSO: 0.9045
[1]; 1 uM
  Burkin Assay in Myoblasts, signal relative to DMSO: 0.9273
[1]; 5 uM
  Burkin Assay in Myoblasts, signal relative to DMSO: 1.074
[1]; 10 uM
  Burkin Assay in Myoblasts, signal relative to DMSO: 1.088
[1]; 20 uM
  Burkin Assay in Myoblasts, signal relative to DMSO: 1.012
[1]; 40 uM
  Burkin Assay in Myoblasts, signal relative to DMSO: 0.71
[2]; 5 uM
  CMV-LACZ in Myotubes, signal relative to DMSO: 1.103
[2]; 10 uM
  CMV-LACZ in Myotubes, signal relative to DMSO: 0.9673
[2]; 20 uM
  CMV-LACZ in Myotubes, signal relative to DMSO: 1.0745
[2]; 40 uM
  CMV-LACZ in Myotubes, signal relative to DMSO: 0.8895
[3]; 0.5 uM
  Burkin Assay in Myotubes, α7 integrin LacZ reporter signal relative to DMSO: 1.139
[3]; 1 uM
  Burkin Assay in Myotubes, α7 integrin LacZ reporter signal relative to DMSO: 0.9276
[3]; 5 uM
  Burkin Assay in Myotubes, α7 integrin LacZ reporter signal relative to DMSO: 1.022
[3]; 10 uM
  Burkin Assay in Myotubes, α7 integrin LacZ reporter signal relative to DMSO: 0.9816
[3]; 20 uM
  Burkin Assay in Myotubes, α7 integrin LacZ reporter signal relative to DMSO: 0.6726
[3]; 40 uM
  Burkin Assay in Myotubes, α7 integrin LacZ reporter signal relative to DMSO: 0.8173

## COc1ccccc1C(=O)Nc1nc2cc3c(cc2s1)OCO3 [MLS000419555-01]
[1]; 0.5 uM, read-out: Burkin Assay in Myoblasts, signal relative to DMSO
  fold induction at 0.5 µM: 1.19
[1]; 1 uM, read-out: Burkin Assay in Myoblasts, signal relative to DMSO
  fold induction at 1 µM: 1.2
[1]; 5 uM, read-out: Burkin Assay in Myoblasts, signal relative to DMSO
  fold induction at 5 µM: 1.07
[1]; 10 uM, read-out: Burkin Assay in Myoblasts, signal relative to DMSO
  fold induction at 10 µM: 1.03
[1]; 20 uM, read-out: Burkin Assay in Myoblasts, signal relative to DMSO
  fold induction at 20 µM: 0.948
[1]; 40 uM, read-out: Burkin Assay in Myoblasts, signal relative to DMSO
  fold induction at 40 µM: 0.797
[2]
  fold induction at 5 µM: 1.22
  fold induction at 10 µM: 1.21
  fold induction at 20 µM: 1.22
  fold induction at 40 µM: 1.22
[3]; 0.5 uM, read-out: Burkin Assay in Myotubes, α7 integrin LacZ reporter signal relative to DMSO
  fold induction at 0.5 µM: 1.05
[3]; 1 uM, read-out: Burkin Assay in Myotubes, α7 integrin LacZ reporter signal relative to DMSO
  fold induction at 1 µM: 1.02
[3]; 5 uM, read-out: Burkin Assay in Myotubes, α7 integrin LacZ reporter signal relative to DMSO
  fold induction at 5 µM: 1.15
[3]; 10 uM, read-out: Burkin Assay in Myotubes, α7 integrin LacZ reporter signal relative to DMSO
  fold induction at 10 µM: 1.09
[3]; 20 uM, read-out: Burkin Assay in Myotubes, α7 integrin LacZ reporter signal relative to DMSO
  fold induction at 20 µM: 1.01
[3]; 40 uM, read-out: Burkin Assay in Myotubes, α7 integrin LacZ reporter signal relative to DMSO
  fold induction at 40 µM: 1.02

## O=C(COC(=O)c1cc2ccccc2oc1=O)Nc1ccc(F)cc1F [MLS000516719-01]
[1]; 0.5 uM
  Burkin Assay in Myoblasts, value relative to DMSO: 1.006
[1]; 1 uM
  Burkin Assay in Myoblasts, value relative to DMSO: 1.048
[1]; 5 uM
  Burkin Assay in Myoblasts, value relative to DMSO: 1.0321
[1]; 10 uM
  Burkin Assay in Myoblasts, value relative to DMSO: 1.068
[1]; 20 uM
  Burkin Assay in Myoblasts, value relative to DMSO: 0.9197
[1]; 40 uM
  Burkin Assay in Myoblasts, value relative to DMSO: 0.9651
[2]; 5 uM
  CMV-LACZ in Myotubes (β-galactosidase activity relative to DMSO): 0.8894
[2]; 10 uM
  CMV-LACZ in Myotubes (β-galactosidase activity relative to DMSO): 1.114
[2]; 20 uM
  CMV-LACZ in Myotubes (β-galactosidase activity relative to DMSO): 1.103
[2]; 40 uM
  CMV-LACZ in Myotubes (β-galactosidase activity relative to DMSO): 1.072
[3]; 0.5 uM
  Burkin Assay in Myotubes (signal relative to DMSO): 0.8618
[3]; 1 uM
  Burkin Assay in Myotubes (signal relative to DMSO): 1.0239
[3]; 5 uM
  Burkin Assay in Myotubes (signal relative to DMSO): 1.203
[3]; 10 uM
  Burkin Assay in Myotubes (signal relative to DMSO): 1.184
[3]; 20 uM
  Burkin Assay in Myotubes (signal relative to DMSO): 1.107
[3]; 40 uM
  Burkin Assay in Myotubes (signal relative to DMSO): 1.175

## CC1(C)Cc2c(ccc3ccccc23)C(=O)N1 [MLS000525404-01]
[1]; 0.5 uM, read-out: Burkin Assay in Myoblasts, value relative to DMSO
  fold induction at 0.5 µM: 1
[1]; 1 uM, read-out: Burkin Assay in Myoblasts, value relative to DMSO
  fold induction at 1 µM: 1.08
[1]; 5 uM, read-out: Burkin Assay in Myoblasts, value relative to DMSO
  fold induction at 5 µM: 1.12
[1]; 10 uM, read-out: Burkin Assay in Myoblasts, value relative to DMSO
  fold induction at 10 µM: 1.28
[1]; 20 uM, read-out: Burkin Assay in Myoblasts, value relative to DMSO
  fold induction at 20 µM: 1.46
[1]; 40 uM, read-out: Burkin Assay in Myoblasts, value relative to DMSO
  fold induction at 40 µM: 1.79
[2]
  fold induction at 5 µM: 0.76
  fold induction at 10 µM: 0.873
  fold induction at 20 µM: 0.841
  fold induction at 40 µM: 0.75
[3]; 0.5 uM, read-out: Burkin Assay in Myotubes (signal relative to DMSO)
  fold induction at 0.5 µM: 1.04
[3]; 1 uM, read-out: Burkin Assay in Myotubes (signal relative to DMSO)
  fold induction at 1 µM: 1.04
[3]; 5 uM, read-out: Burkin Assay in Myotubes (signal relative to DMSO)
  fold induction at 5 µM: 1.12
[3]; 10 uM, read-out: Burkin Assay in Myotubes (signal relative to DMSO)
  fold induction at 10 µM: 1.09
[3]; 20 uM, read-out: Burkin Assay in Myotubes (signal relative to DMSO)
  fold induction at 20 µM: 1.19
[3]; 40 uM, read-out: Burkin Assay in Myotubes (signal relative to DMSO)
  fold induction at 40 µM: 1.35

## Cc1cc2ccccc2n2c(SCC(=O)NCc3cccs3)nnc12 [MLS000526364-01]
[1]; 0.5 uM
  Burkin Assay in Myoblasts, signal relative to DMSO: 0.9747
[1]; 1 uM
  Burkin Assay in Myoblasts, signal relative to DMSO: 0.9502
[1]; 5 uM
  Burkin Assay in Myoblasts, signal relative to DMSO: 1.045
[1]; 10 uM
  Burkin Assay in Myoblasts, signal relative to DMSO: 1.085
[1]; 20 uM
  Burkin Assay in Myoblasts, signal relative to DMSO: 1.114
[1]; 40 uM
  Burkin Assay in Myoblasts, signal relative to DMSO: 1.029
[2]; 5 uM
  CMV-LACZ in Myotubes, signal relative to DMSO: 0.9507
[2]; 10 uM
  CMV-LACZ in Myotubes, signal relative to DMSO: 0.953
[2]; 20 uM
  CMV-LACZ in Myotubes, signal relative to DMSO: 1.1735
[2]; 40 uM
  CMV-LACZ in Myotubes, signal relative to DMSO: 1.1865
[3]; 0.5 uM
  Burkin Assay in Myotubes, α7 integrin LacZ reporter signal relative to DMSO: 0.9648
[3]; 1 uM
  Burkin Assay in Myotubes, α7 integrin LacZ reporter signal relative to DMSO: 0.8953
[3]; 5 uM
  Burkin Assay in Myotubes, α7 integrin LacZ reporter signal relative to DMSO: 1.033
[3]; 10 uM
  Burkin Assay in Myotubes, α7 integrin LacZ reporter signal relative to DMSO: 0.8908
[3]; 20 uM
  Burkin Assay in Myotubes, α7 integrin LacZ reporter signal relative to DMSO: 1.358
[3]; 40 uM
  Burkin Assay in Myotubes, α7 integrin LacZ reporter signal relative to DMSO: 0.9162
